Experimental data reported in patent US20050228041A1, “Protective and therapeutic uses for tocotrienols” (priority 2003, published 2005).
“Also recorded” adds a separate entry of the source.

Assays:
[1] = tested on: primary cardiac fibroblatsts (CF) isolated from adult mouse ventricle; experiment: Cardiac fibroblast death induced by arachidonic acid + buthionine sulfoximine (phase contrast imaging); format: cell-based; settings: arachidonic acid 50 microM + BSO, 250 nM tocotrienol, 24 h, 5% O2
Method: Assays were performed using primary cardiac fibroblatsts (CF) isolated from adult (5-6 week old) mouse ventricle. Cells were cultured under 5% O2 conditions. Five days after isolation cells were treated with arachidonic acid (50 microM)+buthionine sulfoximine in the presence or absence of 250 nM tocotrienol for 24h. Phase contrast imaging was performed using a Zeiss live cell imaging microscope.
Referring to FIG. 8, isolated cardiac fibroblasts cells were treated five days after isolation with arachidonic acid (AA)(50 microM)±buthionine sulfoximine (BS)) in the presence or absence of 250 nM tocotrienol (T3) for 24 hours. Phase contrast imaging was performed using a Zeiss live cell imaging microscope.

[2] = biological target: T1, hydroxy-3 methylglutaryl coenzyme A reductase (Homo sapiens, UniProt P04035); settings: micromolar amounts; Pearce et al.; cited from earlier work
T1 sequence (P04035 1-888): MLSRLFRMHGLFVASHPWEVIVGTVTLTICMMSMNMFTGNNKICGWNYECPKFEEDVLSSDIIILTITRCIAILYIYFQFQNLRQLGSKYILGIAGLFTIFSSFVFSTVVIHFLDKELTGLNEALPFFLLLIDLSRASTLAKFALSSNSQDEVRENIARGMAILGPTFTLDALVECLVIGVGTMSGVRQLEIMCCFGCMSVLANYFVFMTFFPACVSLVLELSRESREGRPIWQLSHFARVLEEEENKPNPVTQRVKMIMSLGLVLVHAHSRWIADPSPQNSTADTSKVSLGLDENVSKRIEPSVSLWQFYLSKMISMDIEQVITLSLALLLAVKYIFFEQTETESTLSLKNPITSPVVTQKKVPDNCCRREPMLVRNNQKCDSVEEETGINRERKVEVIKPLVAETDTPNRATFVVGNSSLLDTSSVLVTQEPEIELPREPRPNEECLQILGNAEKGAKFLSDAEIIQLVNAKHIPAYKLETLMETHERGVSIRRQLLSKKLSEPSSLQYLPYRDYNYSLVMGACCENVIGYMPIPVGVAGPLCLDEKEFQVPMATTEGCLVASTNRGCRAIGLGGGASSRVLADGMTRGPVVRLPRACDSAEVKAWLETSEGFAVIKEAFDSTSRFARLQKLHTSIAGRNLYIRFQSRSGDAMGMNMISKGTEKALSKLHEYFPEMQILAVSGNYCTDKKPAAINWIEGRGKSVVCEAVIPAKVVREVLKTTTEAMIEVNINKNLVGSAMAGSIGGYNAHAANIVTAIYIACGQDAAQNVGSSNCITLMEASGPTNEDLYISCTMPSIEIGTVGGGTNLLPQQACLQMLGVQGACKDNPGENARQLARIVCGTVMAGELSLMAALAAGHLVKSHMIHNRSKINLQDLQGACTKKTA

[3] = tested on: TTP knock-out mice; experiment: Fertility of tocopherol transport protein (TTP) knock-out mice; settings: mouse, in vivo
Text: The uptake and transport of dietary or pharmaceutically supplemented tocopherol from the gut to various parts of the body is directed by TTP. In order to understand and distinguish the important roles of tocopherols and tocotrienols in mammals, knock out mice have been produced in which expression of TTP has been ablated. Interruption of TTP results in loss of fertility in these mice which make it impossible to breed and thus maintain the line for further study.

[4] = tested on: HT4 neurons; experiment: Glutamate-induced death of HT4 neurons (propidium iodide exclusion flow cytometry, cell counts); format: cell-based, mouse
Method: (§1) Referring to FIG. 1, primary rat immature cortical neurons (A-C) or HT4 (D) were either treated or not with α-tocotrienol (as indicated) for 5 min and challenged with either glutamate (10 mM; A); L-homocysteic acid (1 mM; B); or buthionine sulfoximine (0.15 mM; BSO) for 24 h. […] Cells were counted at 12, 24 and 36 h after glutamate challenge.
(§2) First, we tested for the involvement of 12-LOX in the execution of glutamate-induced death in our model. We started by using the 12-LOX specific inhibitor baicalein or BL15. Referring to FIG. 3, HT4 neurons (A) were either treated or not with a-tocotrienol (250 nM) or […] (2.5 μM, 12-lipoxygenase inhibitor) for 5 min and then challenged with glutamate (10 mM). Cell viability was determined using propidium iodide (PI) exclusion flow cytometry assay. PI−=live; PI+=dead. Rat primary immature cortical neurons (B-D) were either treated or not with α-tocotrienol (100 nM) or BL15 (2.5 μM) for 5 min and challenged either with glutamate (10 mM; B); L-homocysteic acid (1 mM; C) or buthionine sulfoximine (0.15 mM; BSO; D) for 24 h. Arachidonic acid, 50 μM for 24h. BL15, Baicalein 5,6,7-trihydroxy-flavone.
(§3) Cell culture. Mouse hippocampal HT4 cells, were grown in Dulbecco's Modified Eagle Medium supplemented with 10% fetal calf serum, penicillin (100 U/ml) and streptomycin (100 μg/ml) at 37° C. in a humidified atmosphere containing 95% air and 5% CO2. HT4 cells were provided by Dr. D. E. Koshland Jr. (University of California at Berkeley) (Sen et al., 2000). Primary cortical neurons. Cells were isolated from the cerebral cortex of rat feti (Sprague Dawley; day 17 of gestation) or mouse feti (C57BL/6 mice, day 14 of gestation) as described (Murphy et al., 1990). For 12-LOX knockout studies, neurons were isolated from the feti of B6.129S2-Alox15^tm1Fun (Jackson Laboratory, […].). After isolation from the brain, cells were counted and seeded in culture plates at a density of 2-3×10^6 cells per 35 mm plate (Murphy et al., 1990). Cells were grown in Minimal Essential Medium (MEM) supplemented with 10% heat-inactivated fetal bovine serum, 40 μM cystine and antibiotics (100 μg/ml streptomycin, 100 units/ml penicillin, 0.25 μg/ml amphotericin). Cultures were maintained at 37° C. in 5% CO2 and 95% air in a humidified incubator. All experiments were carried out 24 h after plating.
(§4) Treatment with neurotoxic agents. Immediately before experiments, culture media was replaced with fresh medium supplemented with serum and antibiotics. Glutamate (10 mM) was added to the media as aqueous solution (Han et al., 1997a; Sen et al., 2000; Tirosh et al., 2000). […] Other agents used to induce death in neuronal cells have been described in the pertinent figure legends.
(§5) Vitamin E treatment. Stock solutions (10^3X of working concentration) of α-tocotrienol was prepared in ethanol. […]
(§6) Determination of cell viability. Viability of HT4 cells was determined using propidium iodide exclusion assay using the flow cytometer as described by us previously (Sen et al., 2000; Tirosh et al., 2000). Because primary neuronal cultures tend to aggregate during flow cytometry, the viability of these cells was assessed by measuring lactate dehydrogenase (LDH) leakage (Han et al., 1997a) from cells to media 24 h following glutamate treatment using in vitro toxicology assay kit from Sigma Chemical Co. (St. Louis, Mo., USA). […]

[5] = biological target: T2, alphaTTP (Rattus norvegicus, UniProt P41034); settings: competition with alpha-[3H]tocopherol; FEBS Lett 1997; cited from earlier work
T2 sequence (P41034 1-278): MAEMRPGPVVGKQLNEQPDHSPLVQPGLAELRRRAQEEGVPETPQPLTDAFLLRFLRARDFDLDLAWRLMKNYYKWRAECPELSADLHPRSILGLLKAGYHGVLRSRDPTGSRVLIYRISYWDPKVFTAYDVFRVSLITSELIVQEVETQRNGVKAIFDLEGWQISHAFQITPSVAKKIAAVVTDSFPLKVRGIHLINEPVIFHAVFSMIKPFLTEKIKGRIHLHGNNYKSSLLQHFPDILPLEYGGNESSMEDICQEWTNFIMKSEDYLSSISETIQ

[6] = tested on: primary rat immature cortical neurons; experiment: Neurotoxin-induced loss of viability of primary immature cortical neurons (LDH leakage); format: cell-based; settings: 24 h
Method: as §1, §2, §3, §4, §5, §6

[7] = tested on: primary neurons; experiment: Cellular glutathione (GSH) in glutamate-treated primary neurons (HPLC-coulometric); format: cell-based, rat; settings: glutamate 10 mM; α-tocotrienol 100 nM or BL15 2.5 μM
Method: as §2, with “5,6,7-trihydroxy-flavone. […] B-E: †, lower compared to the corresponding control non-treated group; *, higher compared to the corresponding toxin-treated group. P<0.05.” for “5,6,7-trihydroxy-flavone.”
Glutathione assay. Glutathione (GSH) was detected using a HPLC-coulometric electrode array detector (Coularray Detector—model 5600 with 12 channels; ESA Inc., Chelmsford, Mass.). […] Glutathione was detected at channels set at following potentials: I) 600 mV, II) 700 mV; and II) 800 mV. Signals from channel set at 800 mV were used for quantification (Sen et al., 2002).

[8] = tested on: rat primary cortical neurons; experiment: Imaging of glutamate-induced degeneration of rat primary cortical neurons (immunofluorescence, live cell imaging); format: cell-based; settings: glutamate 10 mM; α-tocotrienol 250 nM or BL15 2.5 μM 5 min before
Method: Phase contrast images were collected once every 15 mins for 18 h from 8 h after glutamate treatment.
For immunofluorescence microscopy, primary cultures of rat cortical neurons were plated on 35 mm plates pre-coated with poly-L-lysine. After 24 h, cell were treated with α-tocotrienol or BL15 for 5 minutes and then challenged with glutamate or exposed to glutamate. After 24 h of glutamate exposure, cells were washed thrice in PBS, fixed for 10 minutes at room temperature in 4% paraformaldehyde, and permeabilized with PBS-T (PBS containing 0.2% Triton X-100) for 20 minutes at room temperature. Samples were then rinsed 3× with PBS-T and blocking (2% BSA in PBS-T) was done for 1 h at room temperature. After blocking, samples were incubated overnight at 4° C. with the primary antibody (anti-neurofilament 200 (1:100, Sigma St. Louis, Mo.) or neuronal class III α-tubulin (1:500, Covance Berkeley, Calif.)}. After washing with PBS (3×, 5 min each), the samples were incubated with Alexa Fluor 488 conjugated goat anti-mouse or anti-rabbit (Molecular Probes Eugene, Oreg.) secondary antibody for 45 minutes at room temperature. This was followed by three PBS washes, and mounting in aqueous medium. Fluorescent images were collected using a Zeiss Axiovert 200M microscope. Images were acquired using Axiovision 3.1.
For live cell imaging, primary cultures of rat cortical neurons were plated on 35 mm plates pre-coated with poly-L-lysine. […] Images were collected once every 15 minutes using a specialized phase contrast Zeiss optics suited for imaging cells growing in routine culture plates.

Compound | cell death induced by AA+BSO [1] | activity of hydroxy-3 methylglutaryl coenzyme A reductase [2] | fertility of TTP knock-out mice [3] | protection against glutamate-induced toxicity / loss of cell viability of HT4 ([4]; glutamate 10 mM, tocotrienol 100 nM (nM levels) 5 min before) | proliferation / growth rate of glutamate-treated HT4 cells ([4]; tocotrienol 100 nM (nM levels), cells counted 12, 24 and 36 h after glutamate) | relative affinity of alpha TTP [5] | protection of primary neurons against toxicity triggered by L-homocysteic acid or BSO ([6]; L-homocysteic acid 1 mM or BSO 0.15 mM, BL15 2.5 μM 5 min before) | protection against glutamate-induced death of primary neurons ([6]; glutamate 10 mM, α-tocotrienol 100 nM or BL15 2.5 μM 5 min before) | cellular glutathione (GSH) in protected glutamate-treated primary neurons [7] | protection against glutamate induced death of HT4 cells ([4]; glutamate 10 mM, BL15 2.5 μM 5 min before) | glutamate-induced degeneration of the neural network and neuronal growth [8]
tocotrienol | completely blocked cell death | suppress the activity | reversal of TTP-dependent infertility | prevented glutamate-induced toxicity | proliferate at a rate comparable to cells not treated with glutamate | relatively low affinity | – | – | – | – | –
O=c1cc(-c2ccccc2)oc2cc(O)c(O)c(O)c12 [BL15, 5,6,7-trihydroxy-flavone, reference compound] | – | – | – | – | – | – | protected | protected neurons against glutamate challenge; also recorded: clearly protected | loss of cellular glutathione; also recorded: lowered GSH levels | clearly protected | protection
